1 molecule from PMC9319510, “The Multistage Antimalarial Compound Calxinin Perturbates P. falciparum Ca^2+ Homeostasis by Targeting a Unique Ion Channel” (Pharmaceutics, 2022) can be followed below.

The structures appear in SMILES notation. pIC50: −log10 of the molar value.

This assay deals with T1, voltage T-type Ca2+ channel (α1H; Cav3.1).
T1 construct: gene CACNA1H; α1H cDNA in pcDNA3, expressed in HEK 293 cells; Cav3.1 would be α1G (CACNA1G)
In words: whole-cell patch clamp. The assay is classed as cell-based, Homo sapiens. The following applies: HEK-293 cells stably expressing α1H; 5 mM CaCl2 external, pH 7.4; Vh -90 mV; positive control, data not shown.

As for `CN1CCN(c2ncc(-c3cc(Cl)cc(Cl)c3Cl)c(N)n2)CC1` [Sipatrigine], the pIC50 (usually the negative decadic logarithm of the IC50, by convention in mol/L) is about 4.52.
